Entries after “also recorded” stand apart in the source; their conditions may differ. Read-outs that look alike come from different tables or passages of the source. Values belong to the compound of their own block, whether it stands above or below them.
What was measured:
[1] = tested on: FLRFa-induced calcium release in HEK-MrgA1; experiment: FLRFa-induced [Ca2+]i response in HEK-MrgA1 with pathway inhibitors; type: cell-based, human; settings: HEK-MrgA1, 3 μM FLRFa; 10 μM U73122 or U73343 10 min pretreatment; 1 μM TG in 2 mM EGTA
Procedure: (§1) Cells loaded with Fura-2/AM were stimulated with each agonist and fluorescence was recorded. Graphs represent an average plot of [Ca^2+]i measurements versus time (in s) in a minimum of 8 cells from representative experiments. Individual data points represent images taken at 0.8-s intervals. […] After a 10 minute pretreatment with U73122 and U73343, each agonist was added. FIGS. 2B and E show the extracellular [Ca^2+] dependency of Ca^2+ mobilization. Cells were preincubated for 2 minutes with 2 mM EGTA (open circles) or normal medium containing 1.2 mM calcium (closed circles) and then 3 μM FLRFa or 1 μM γ2-MSH was added. […] In the presence of 2 mM EGRA, TG (1 μM final concentration) was added to deplete internal Ca^2+ stores.
(§2) The calcium source responsible for the initial peak in [Ca^2+]i was determined by depleting internal calcium stores with the application of 1 μM TG (FIGS. 2C and F).
(§3) Heterotrimeric G proteins of the Gαi and Gαq class are involved in the propagation of signals from GPCRs leading to [Ca^2+]i elevation (Guderman et al. Ann. Rev. Pharmacol. Toxicol. 36:429-459 (1996)). To determine whether Gαi/o proteins are involved in the [Ca^2+]i response, we pretreated HEK-MrgA1 or HEK-MrgC11 cells with PTX (100 ng/ml) for 16 h. […] The dose dependency in [Ca^2+]i responses for both receptors were not affected by PTX (FIGS. 4A and D).

[2] = tested on: γ2-MSH-induced calcium release in HEK-MrgC11; experiment: γ2-MSH-induced [Ca2+]i response in HEK-MrgC11 with pathway inhibitors; type: cell-based, human; settings: HEK-MrgC11, 1 μM γ2-MSH; 10 μM U73122 or U73343 10 min pretreatment; 1 μM TG in 2 mM EGTA
Procedure: as §1, §2, §3

MrgC11 = molecular target: T1, MrgC11 (Mus musculus, UniProt Q8CIP3); experiment: calcium-mobilization assay (FLEXstation, Fura-2/AM) in HEK-MrgC11 cells; type: cell-based
T1 construct: A full-length MrgC11 cDNA was cloned from the newborn DRG cDNA library; expressed in transfected cells
T1 sequence (Q8CIP3 1-322): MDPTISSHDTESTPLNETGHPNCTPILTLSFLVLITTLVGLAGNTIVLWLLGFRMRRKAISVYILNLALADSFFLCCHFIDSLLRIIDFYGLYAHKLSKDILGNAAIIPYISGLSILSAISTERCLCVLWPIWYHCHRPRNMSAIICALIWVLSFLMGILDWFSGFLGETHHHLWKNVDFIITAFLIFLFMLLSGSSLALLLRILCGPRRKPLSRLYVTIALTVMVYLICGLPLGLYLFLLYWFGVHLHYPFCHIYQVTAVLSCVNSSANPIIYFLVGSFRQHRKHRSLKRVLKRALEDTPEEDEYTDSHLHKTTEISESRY
Procedure: (§4) To address the questions of the ligand selectivity of the MrgC11 receptor, human embryonic kidney (HEK) 293 cells stably expressing either MrgA1 or MrgC11 were established. Neuropeptides were screened to identify ligands and agonists.
(§5) HEK293 cells were transfected with cDNA encoding the MrgAl-GFP, mNPFF2-GFP or MrgC11-GFP in pcDNA3.1/Zio(+) plasmid (Invitrogen) using the FuGENE6 transfection reagent (Roche Molecular Biomolecules). The transfected cells were selected with 400 μg/ml zeocin in DMEM supplemented with 10% FBS. Each cloned cell was further selected for membrane localization of receptor-GFP fusion protiens.
(§6) The selected cells were maintained in the same medium supplemented with 200 μg/ml zeocin. The stable cell lines were designated HEK-MrgA1, HEK-NPFF2 and HEK-MrgC11.
(§7) To identify putative ligands for MrgC11 and MrgA1 receptors, HEK-MrgC11 or HEKMrgA1 stable cell lines were screened in a calcium-mobilization assay using a fluorescence-imaging plate reader (FLEXstation). Briefly, HEK-MrgA1 or HEK-MrgC11 were plated in 96-black-well plates (Corning) and grown to confluence. After incubation with Fura-2/AM for >20 min, cells were washed and equilibrated for 20 min with HBSS (Hanks' balanced salt solution) assay buffer. The fluorescence emission caused by intracellular calcium mobilization elicited by agonists was determined by using a fluorometric imaging plate reader, Flexstation (Molecular Devices). All peptides were from Phoenix Pharmaceuticals (St. Joseph, Mo.), Bachem, American Peptide (Sunnyvale, Calif.), or Sigma.

MrgA1 = molecular target: T2, MrgA1 (Mus musculus, UniProt Q91WW5); experiment: calcium-mobilization assay (FLEXstation, Fura-2/AM) in HEK-MrgA1 cells; type: cell-based; settings: for EC50 MrgA1, nM: Table 2, chirally modified FMRFa peptides, mean ± SEM
T2 construct: expressed in transfected cells
T2 sequence (Q91WW5 1-304): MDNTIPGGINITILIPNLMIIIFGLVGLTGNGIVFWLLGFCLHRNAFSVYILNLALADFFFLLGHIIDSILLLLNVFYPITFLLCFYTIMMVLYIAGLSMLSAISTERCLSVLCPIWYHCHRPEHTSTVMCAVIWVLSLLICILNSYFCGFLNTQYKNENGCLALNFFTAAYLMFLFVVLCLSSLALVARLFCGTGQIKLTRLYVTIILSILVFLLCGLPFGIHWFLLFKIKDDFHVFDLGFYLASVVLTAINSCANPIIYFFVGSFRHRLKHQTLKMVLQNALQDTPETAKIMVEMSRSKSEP
Procedure: as §4, §5, §6, §7

SMILES: C/C=C(/C)C(=O)O[C@H]1C(C)=C2[C@H]([C@@H]1OC(=O)CCCCCCC)[C@@](C)(OC(C)=O)C[C@H](OC(=O)CCC)[C@@]1(O)[C@H]2OC(=O)[C@@]1(C)O [TG, thapsigargin]
effect on FLRFa-induced calcium response [1]: prevents; also recorded: blocked the response
effect on γ2-MSH-induced calcium response [2]: prevents; also recorded: blocked the response

SMILES: COc1ccc2c(c1)CC[C@@H]1[C@@H]2CC[C@]2(C)[C@@H](NCCCCCCN3C(=O)C=CC3=O)CC[C@@H]12 [U73122]
effect on FLRFa-induced calcium response [1]: blocked; also recorded: completely inhibited
effect on γ2-MSH-induced calcium response [2]: blocked; also recorded: completely inhibited

EC50 (MrgC11; Table 1, HEK-MrgC11 cells, FLEXstation assay, means ± SEM, triplicate, Inactive = no activation detected at concentrations up to 10 mM, read-out: EC50 MrgC11): 50 ± 4 nM
EC50 MrgA1 (MrgA1; Table 1, HEK-MrgA1 cells, FLEXstation assay, means ± SEM, triplicate, Inactive = no activation detected at concentrations up to 10 mM): Inactive
SMILES: CC(C)C[C@H](NC(=O)CNC(=O)[C@H](Cc1ccccc1)NC(=O)[C@H](CO)NC(=O)[C@H](CC(N)=O)NC(=O)[C@H](Cc1c[nH]c2ccccc12)NC(=O)[C@H](CC(N)=O)NC(=O)[C@@H](N)Cc1ccc(O)cc1)C(=O)N[C@@H](CCCNC(=N)N)C(=O)N[C@@H](Cc1ccccc1)C(N)=O [Kiss(112-121)]

SMILES: CSCC[C@H](NC(=O)[C@H](Cc1ccccc1)NC(=O)CNC(=O)CNC(=O)[C@@H](N)Cc1ccc(O)cc1)C(=O)N[C@@H](CCCNC(=N)N)C(=O)N[C@@H](CCCNC(=N)N)C(=O)N[C@H](C(=O)NCC(=O)N[C@@H](CCCNC(=N)N)C(=O)N1CCC[C@H]1C(=O)N[C@@H](CCC(=O)O)C(=O)N[C@@H](Cc1c[nH]c2ccccc12)C(=O)N[C@@H](Cc1c[nH]c2ccccc12)C(=O)N[C@@H](CCSC)C(=O)N[C@@H](CC(=O)O)C(=O)N[C@@H](Cc1ccc(O)cc1)C(=O)N[C@@H](CCC(N)=O)C(=O)N[C@@H](CCCCN)C(=O)N[C@@H](CCCNC(=N)N)C(=O)N[C@@H](Cc1ccc(O)cc1)C(=O)NCC(=O)O)C(C)C [BAM-22P]
EC50 (MrgC11): 26 ± 10 nM
EC50 (MrgA1): 2540 nM

SMILES: COc1ccc2c(c1)CC[C@@H]1[C@@H]2CC[C@]2(C)[C@@H](NCCCCCCN3C(=O)CCC3=O)CC[C@@H]12 [U73343]
effect on FLRFa-induced calcium response [1]: did not significantly affect
effect on γ2-MSH-induced calcium response [2]: did not significantly affect

SMILES: N=C(N)NCCC[C@H](N)C(=O)N[C@@H](Cc1ccccc1)C(N)=O [R-Fa]
EC50 (MrgC11): 460 ± 35 nM
EC50 MrgA1, nM (MrgA1; HEK-MrgA1 cells, triplicate): Inactive
EC50 MrgA1, nM (MrgA1; HEK-MrgA1 cells, triplicate, listed as RFa): not able to activate

Reference: patent US20040121410A1, “Pain signaling molecules” (priority 2002, published 2004)
